Among the data in patent US11357246B2, “High intensity sweeteners” (Firmenich Incorporated, priority 2015, dated 2022) are EC50 values, retold here.

Structures are written as SMILES.

In the first test the target is T1, hT1R2/hT1R3 (Homo sapiens, UniProt Q7RTX0+Q8TE23).
T1 construct: expressed in transfected cells; parental cells lack the receptor
T1 sequence (Q8TE23 20-839): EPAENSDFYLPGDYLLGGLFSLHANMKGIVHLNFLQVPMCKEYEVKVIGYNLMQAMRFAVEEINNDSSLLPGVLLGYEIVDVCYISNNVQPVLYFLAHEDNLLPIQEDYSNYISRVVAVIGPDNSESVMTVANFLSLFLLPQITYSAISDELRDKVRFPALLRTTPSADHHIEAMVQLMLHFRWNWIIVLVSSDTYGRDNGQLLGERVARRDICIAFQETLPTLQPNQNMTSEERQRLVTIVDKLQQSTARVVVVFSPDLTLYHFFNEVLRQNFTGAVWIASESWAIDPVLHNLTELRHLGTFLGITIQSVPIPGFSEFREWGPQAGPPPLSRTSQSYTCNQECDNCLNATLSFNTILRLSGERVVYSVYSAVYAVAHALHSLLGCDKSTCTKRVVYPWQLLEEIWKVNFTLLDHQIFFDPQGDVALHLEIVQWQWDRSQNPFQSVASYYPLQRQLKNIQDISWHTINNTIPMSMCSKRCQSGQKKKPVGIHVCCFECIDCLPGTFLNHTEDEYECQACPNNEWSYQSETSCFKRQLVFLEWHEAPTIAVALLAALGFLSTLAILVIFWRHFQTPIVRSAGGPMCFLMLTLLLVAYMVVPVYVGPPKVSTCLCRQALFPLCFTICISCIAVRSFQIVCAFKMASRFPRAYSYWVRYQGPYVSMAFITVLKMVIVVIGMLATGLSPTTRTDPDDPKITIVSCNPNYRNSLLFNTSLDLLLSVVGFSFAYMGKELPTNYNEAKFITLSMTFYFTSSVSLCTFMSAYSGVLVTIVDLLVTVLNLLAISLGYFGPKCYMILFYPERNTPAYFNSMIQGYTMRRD
T1 sequence (Q7RTX0 21-852): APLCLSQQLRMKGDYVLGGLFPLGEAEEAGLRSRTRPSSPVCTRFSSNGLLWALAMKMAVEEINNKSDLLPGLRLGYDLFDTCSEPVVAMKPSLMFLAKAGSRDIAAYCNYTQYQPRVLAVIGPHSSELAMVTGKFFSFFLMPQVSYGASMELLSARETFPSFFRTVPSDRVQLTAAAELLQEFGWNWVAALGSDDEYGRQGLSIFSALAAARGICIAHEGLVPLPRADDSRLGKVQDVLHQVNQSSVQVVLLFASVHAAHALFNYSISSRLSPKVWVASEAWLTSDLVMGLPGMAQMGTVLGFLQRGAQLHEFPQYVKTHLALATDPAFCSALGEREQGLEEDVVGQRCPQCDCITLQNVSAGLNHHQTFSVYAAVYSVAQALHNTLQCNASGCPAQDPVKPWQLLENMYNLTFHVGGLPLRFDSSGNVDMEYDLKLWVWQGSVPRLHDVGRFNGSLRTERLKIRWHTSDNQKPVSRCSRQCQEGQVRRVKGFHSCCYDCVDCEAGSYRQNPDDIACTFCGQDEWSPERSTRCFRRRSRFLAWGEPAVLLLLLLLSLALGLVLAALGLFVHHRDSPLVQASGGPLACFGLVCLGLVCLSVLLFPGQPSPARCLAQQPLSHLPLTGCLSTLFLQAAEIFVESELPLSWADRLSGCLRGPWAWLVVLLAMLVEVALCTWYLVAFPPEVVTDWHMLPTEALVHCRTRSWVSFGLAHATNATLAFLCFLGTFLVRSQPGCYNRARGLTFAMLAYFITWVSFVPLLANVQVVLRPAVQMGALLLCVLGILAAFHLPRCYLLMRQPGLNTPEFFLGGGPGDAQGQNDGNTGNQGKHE
Put plainly: HTS-Sweet: FLIPR calcium fluorometric imaging assay in cells stably expressing the human sweet taste receptor and a promiscuous G protein. In kind it is cell-based.
Details: not given
On the procedure: Compound activity (EC50) was determined using an automated fluorometric imaging assay on a FLIPR instrument (Fluorometric […] Plate Reader, Molecular Devices, Sunnyvale, Calif.). Cell stably expressing the human sweet taste receptor and a promiscuous G protein were seeded into 384-well plates (at approximately 40,000 cells per well). Cells were grown for 24 hours at 37° C. Cells were then loaded with the calcium dye Fluo-4AM (Molecular Probes, Eugene, Oreg.), 4 μM in a phosphate buffered saline (D-PBS) (Invitrogen, Carlsbad, Calif.), for 1 hour at room temperature. After replacement with 25 μl D-PBS, stimulation was performed in the FLIPR instrument and at room temperature by the addition of 25 μl D-PBS supplemented with different stimuli at concentrations corresponding to twice the desired final level. Receptor activity was quantified by determining the maximal fluorescence increases (using a 480 nm excitation and 535 nm emission) after normalization to basal fluorescence intensity measured before stimulation.
For dose-responses analysis, stimuli were presented in duplicates at 10 different concentrations ranging from 0.4 μM to 200 μM. EC50 s were determined using a non-linear regression algorithm, where the Hill slope, bottom asymptotes and top asymptotes were allowed to vary.
For the molecule `C[C@H](CC[C@@H](O[C@@H]1O[C@H](CO[C@H]2O[C@H](CO)[C@@H](O)[C@H](O)[C@H]2O)[C@@H](O)[C@H](O)[C@H]1O[C@@H]1O[C@H](CO)[C@@H](O)[C@H](O)[C@H]1O)C(C)(C)O)C1CC[C@@]2(C)C3CC=C4C(CC[C@H](O[C@@H]5O[C@H](CO[C@H]6O[C@H](CO)[C@@H](O)[C@H](O)[C@H]6O)[C@@H](O)[C@H](O)[C@H]5O)C4(C)C)[C@]3(C)[C@H](O)C[C@]12C` (some centres unmarked) [Compound 4], the EC50 is below 17 µM.

Turning to `C[C@H](CC[C@@H](O[C@@H]1O[C@H](CO[C@H]2O[C@H](CO)[C@@H](O)[C@H](O)[C@H]2O)[C@@H](O)[C@H](O)[C@H]1O[C@@H]1O[C@H](CO)[C@@H](O)[C@H](O)[C@H]1O)C(C)(C)O)C1CC[C@@]2(C)C3CC=C4C(CC[C@H](O[C@@H]5O[C@H](CO[C@@H]6O[C@H](CO)[C@@H](O)[C@H](O)[C@H]6O)[C@@H](O)[C@H](O)[C@H]5O)C4(C)C)[C@]3(C)[C@H](O)C[C@]12C` (some centres unmarked) [Compound 23], the EC50 was below 17 µM.

Regarding `CC(CCC(OC1OC(COC2OC(CO)C(O)C(O)C2O)C(O)C(O)C1OC1OC(CO)C(O)C(O)C1O)C(C)(C)O)C1CCC2(C)C3CC=C4C(CCC(OC5OC(COC6OC(CO)C(O)C(O)C6O)C(O)C(O)C5O)C4(C)C)C3(C)C(O)CC12C` (centres unmarked) [Compound 12], the EC50 lay within 17 to 30 µM.

Staying with this test, now noted: FLIPR, Fluo-4AM, 10 concentrations 0.4 μM to 200 μM in duplicates; read-out: Compound EC50s for hT1R2/hT1R3.
On to `C[C@H](CC[C@@H](O[C@@H]1O[C@H](CO)[C@@H](O)[C@H](O)[C@H]1O[C@@H]1O[C@H](CO)[C@@H](O)[C@H](O)[C@H]1O)C(C)(C)O)C1CC[C@@]2(C)C3CC=C4C(CC[C@H](O[C@@H]5O[C@H](CO[C@@H]6O[C@H](CO)[C@@H](O)[C@H](O)[C@H]6O)[C@@H](O)[C@H](O)[C@H]5O[C@H]5O[C@@H](CO)[C@H](O)[C@@H](O)[C@@H]5O)C4(C)C)[C@]3(C)[C@H](O)C[C@]12C` (some centres unmarked) [Compound 32], for which the EC50 was above 30 µM. For `C[C@H](CC[C@@H](O[C@@H]1O[C@H](CO)[C@@H](O)[C@H](O)[C@H]1O[C@@H]1O[C@H](CO)[C@@H](O[C@H]2O[C@H](CO)[C@@H](O)[C@H](O)[C@H]2O)[C@H](O)[C@H]1O)C(C)(C)O)C1CC[C@@]2(C)C3CC=C4C(CC[C@H](O[C@@H]5O[C@H](CO)[C@@H](O)[C@H](O)[C@H]5O)C4(C)C)[C@]3(C)[C@H](O)C[C@]12C` (some centres unmarked) [Compound 9], the EC50 lay within 17 to 30 µM. Turning to `C[C@H](CC[C@@H](O[C@@H]1O[C@H](CO[C@H]2O[C@H](CO)[C@@H](O)[C@H](O)[C@H]2O)[C@@H](O)[C@H](O)[C@H]1O[C@@H]1O[C@H](CO)[C@@H](O)[C@H](O)[C@H]1O)C(C)(C)O)C1CC[C@@]2(C)C3CC=C4C(CC[C@H](O[C@@H]5O[C@H](CO)[C@@H](O)[C@H](O)[C@H]5O)C4(C)C)[C@]3(C)C(=O)C[C@]12C` (some centres unmarked) [Compound 11], the EC50 is above 30 µM. With `C[C@H](CC[C@@H](O[C@@H]1O[C@H](CO[C@H]2O[C@H](CO)[C@@H](O)[C@H](O)[C@H]2O)[C@@H](O)[C@H](O)[C@H]1O[C@@H]1O[C@H](CO)[C@@H](O)[C@H](O)[C@H]1O)C(C)(C)O)C1CC[C@@]2(C)C3CC=C4C(CC[C@H](O[C@@H]5O[C@H](CO)[C@@H](O[C@H]6O[C@H](CO)[C@@H](O)[C@H](O)[C@H]6O)[C@H](O)[C@H]5O)C4(C)C)[C@]3(C)[C@H](O)C[C@]12C` (some centres unmarked) [Compound 5], the EC50 lay within 17 to 30 µM. `C[C@H](CC[C@@H](O[C@@H]1O[C@H](CO[C@@H]2O[C@H](CO)[C@@H](O)[C@H](O)[C@H]2O)[C@@H](O)[C@H](O)[C@H]1O[C@@H]1O[C@H](CO)[C@@H](O)[C@H](O)[C@H]1O)C(C)(C)O)C1CC[C@@]2(C)C3CC=C4C(CC[C@H](O[C@@H]5O[C@H](CO[C@H]6O[C@H](CO[C@H]7O[C@@H](CO)[C@H](O)[C@@H](O)[C@@H]7O)[C@@H](O)[C@H](O)[C@H]6O)[C@@H](O)[C@H](O)[C@H]5O)C4(C)C)[C@]3(C)[C@H](O)C[C@]12C` (some centres unmarked) [Compound 2]: the EC50 fell in the range of 17 to 30 µM. On to `C[C@H](CC[C@@H](O[C@@H]1O[C@H](CO)[C@@H](O[C@@H]2O[C@H](CO)[C@@H](O)[C@H](O)[C@H]2O)[C@H](O)[C@H]1O[C@@H]1O[C@H](CO)[C@@H](O)[C@H](O)[C@H]1O)C(C)(C)O)C1CC[C@@]2(C)C3CC=C4C(CC[C@H](O)C4(C)C)[C@]3(C)[C@H](O)C[C@]12C` (some centres unmarked) [Compound 35], for which the EC50 lay within 17 to 30 µM. Regarding `C[C@H](CC[C@@H](O[C@@H]1O[C@H](CO)[C@@H](O)[C@H](O)[C@H]1O[C@@H]1O[C@H](CO)[C@@H](O[C@@H]2O[C@H](CO)[C@@H](O)[C@H](O)[C@H]2O)[C@H](O)[C@H]1O)C(C)(C)O)C1CC[C@@]2(C)C3CC=C4C(CC[C@H](O[C@@H]5O[C@H](CO)[C@@H](O)[C@H](O)[C@H]5O)C4(C)C)[C@]3(C)[C@H](O)C[C@]12C` (some centres unmarked) [Compound 13], the EC50 is 17 to 30 µM. As to `C[C@H](CC[C@@H](O[C@@H]1O[C@H](CO)[C@@H](O)[C@H](O)[C@H]1O[C@@H]1O[C@H](CO)[C@@H](O)[C@H](O)[C@H]1O)C(C)(C)O)C1CC[C@@]2(C)C3CC=C4C(CC[C@H](O[C@@H]5O[C@H](CO[C@H]6O[C@H](COC7O[C@H](CO)[C@@H](O)[C@H](O)[C@H]7O)[C@@H](O)[C@H](O)[C@H]6O)[C@@H](O)[C@H](O)[C@H]5O)C4(C)C)[C@]3(C)[C@H](O)C[C@]12C` (some centres unmarked) [Compound 33], the EC50 is above 30 µM. Consider `C[C@H](CC[C@@H](O[C@@H]1O[C@H](CO[C@@H]2O[C@H](CO[C@@H]3O[C@H](CO)[C@@H](O)[C@H](O)[C@H]3O)[C@@H](O)[C@H](O)[C@H]2O)[C@@H](O)[C@H](O)[C@H]1O[C@@H]1O[C@H](CO)[C@@H](O)[C@H](O)[C@H]1O)C(C)(C)O)C1CC[C@@]2(C)C3CC=C4C(CC[C@H](O[C@@H]5O[C@H](COC6O[C@H](CO)[C@@H](O)[C@H](O)[C@H]6O)[C@@H](O)[C@H](O)[C@H]5O)C4(C)C)[C@]3(C)[C@H](O)C[C@]12C` (some centres unmarked) [Compound 30], for which the EC50 was above 30 µM. On to `C[C@H](CC[C@@H](O[C@@H]1O[C@H](CO[C@@H]2O[C@H](CO)[C@@H](O)[C@H](O)[C@H]2O)[C@@H](O)[C@H](O)[C@H]1O[C@@H]1O[C@H](CO)[C@@H](O)[C@H](O)[C@H]1O)C(C)(C)O)C1CC[C@@]2(C)C3CC=C4C(CC[C@H](O[C@@H]5O[C@H](CO[C@@H]6O[C@H](CO)[C@@H](O)[C@H](O)[C@H]6O)[C@@H](O)[C@H](O)[C@H]5O)C4(C)C)[C@]3(C)C=C[C@]12C` (some centres unmarked) [Compound 31], for which the EC50 is above 30 µM. As for `C[C@H](CC[C@@H](O[C@@H]1O[C@H](CO[C@H]2O[C@H](CO)[C@@H](O)[C@H](O)[C@H]2O)[C@@H](O)[C@H](O)[C@H]1O[C@@H]1O[C@H](CO)[C@@H](O[C@H]2O[C@H](CO)[C@@H](O)[C@H](O)[C@H]2O)[C@H](O)[C@H]1O)C(C)(C)O)C1CC[C@@]2(C)C3CC=C4C(CC[C@H](O)C4(C)C)[C@]3(C)[C@H](O)C[C@]12C` (some centres unmarked) [Compound 16], the EC50 fell in the range of 17 to 30 µM.
